Measured values from patent EP0326329B1, “Quinazoline derivatives useful as insecticides” (Dow AgroSciences LLC, priority 1988, dated 1989).

What was measured:
Format in all cases: in vivo
[1] = tested on: Erysiphe graminis tritici (powdery mildew); experiment: Greenhouse Test 1, foliar spray fungicide screen (POWD MDEW), host wheat; conditions: disease control rating, 400 ppm (+++ at 100 ppm)
[2] = tested on: Pyricularia oryzae (rice blast); conditions: disease control rating, foliar spray, host rice; 400 ppm (+++ at 100 ppm)
[3] = tested on: Puccinia recondita tritici (leaf rust); experiment: Greenhouse Test 1, foliar spray fungicide screen (LEAF RUST), host wheat; conditions: disease control rating, 400 ppm (+++ at 100 ppm)
[4] = tested on: Pseudoperonospora cubensis (downy mildew); experiment: Greenhouse Test 1, foliar spray fungicide screen (DOWN MDEW), host squash; conditions: disease control rating, 400 ppm (+++ at 100 ppm)
[5] = tested on: Cercospora beticola (leaf spot); experiment: Greenhouse Test 1, foliar spray fungicide screen (LEAF SPOT), host sugar beet; conditions: disease control rating, 400 ppm (+++ at 100 ppm)
[6] = tested on: Venturia inaequalis (apple scab); experiment: Greenhouse Test 1, foliar spray fungicide screen (APPL SCAB), host apple seedling; conditions: disease control rating, 400 ppm (+++ at 100 ppm)
[7] = tested on: Septoria tritici (leaf blotch); experiment: Greenhouse Test 1, foliar spray fungicide screen (LEAF BLOT), host wheat; conditions: disease control rating, 400 ppm (+++ at 100 ppm)
[8] = tested on: Southern corn rootworm (Diabrotica undecimpuctata howardi Barber); experiment: Mite/insect screen, soil treatment (CRW); conditions: Diabrotica, percent mortality, soil treatment, read-out: CRW RESULTS %; for mortality at 12 ppm: CRW rate 12.00 ppm; for mortality at 24 ppm: CRW rate 24.00 ppm
Procedure, shortened: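 Compounds dissolved in acetone/alcohol (50:50) with Toximul R/S emulsifiers, diluted with water. Soil (15 g, with presoaked corn seed) treated with 1 mL test solution, dried 6–12 h, then five 2–3 instar larvae added; held at 23°C. Percent mortality and phytotoxicity scored after standard exposure periods.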

[9] = tested on: southern armyworm (Spodopetra eridania Cramer); experiment: Mite/insect screen, sprayed squash leaves (SAW); conditions: Spodoptera eridania, percent mortality, read-out: SAW RESULTS %; for mortality at 200 ppm: spray rate 200 ppm; for mortality at 400 ppm: spray rate 400 ppm
Procedure, shortened: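 Compounds dissolved in acetone/alcohol with TOXIMUL R/S emulsifiers, diluted with water to test concentrations, and sprayed to runoff on both leaf surfaces at 10 psi, then dried 1 h. Excised treated squash leaves given southern armyworm larvae; aphid and spider mite tests on sprayed squash cotyledons. Percent mortality and phytotoxicity scored after standard exposure.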

[10] = tested on: Twospotted spider mites (Tetranychus urticae Koch); experiment: Mite/insect screen, sprayed squash cotyledons (SM); conditions: Tetranychus urticae, percent mortality, read-out: SM RESULTS %; for mortality at 200 ppm: spray rate 200 ppm; for mortality at 400 ppm: spray rate 400 ppm
Procedure, shortened: (§1)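 Water-diluted formulations of each compound (acetone/alcohol 50:50 with 23 g/L and 13 g/L emulsifier blends) are sprayed over both leaf faces to runoff. After a standard exposure period, percent kill and phytotoxicity are recorded.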

[11] = tested on: melon aphids (Aphis gossypii Glover); experiment: Mite/insect screen, sprayed squash cotyledons (MA); conditions: Aphis gossypii, percent mortality, read-out: MA RESULTS %; for mortality at 200 ppm: spray rate 200 ppm; for mortality at 400 ppm: spray rate 400 ppm
Procedure, shortened: as §1

[12] = tested on: Botrytis cinerea (gray mold); experiment: Greenhouse Test 1, foliar spray fungicide screen (GRAY MOLD), host grape berries; conditions: disease control rating, 400 ppm (+++ at 100 ppm)

COc1ccccc1CCNc1nc(NCCc2ccccc2OC)c2ccccc2n1 [Example 25, N,N'-bis[2-(2-methoxyphenyl)ethyl]-2,4-quinazolinediamine]
POWD MDEW [1]: - (- = 0-19% control at 400 ppm)
RICE BLAST [2]: + (+ = 20-89% control at 400 ppm)
LEAF RUST [3]: + (+ = 20-89% control at 400 ppm)
DOWN MDEW [4]: ++ (++ = 90-100% control at 400 ppm)
LEAF SPOT [5]: - (- = 0-19% control at 400 ppm)
APPL SCAB [6]: - (- = 0-19% control at 400 ppm)
LEAF BLOT [7]: - (- = 0-19% control at 400 ppm)
mortality at 12 ppm [8]: 0%
mortality at 200 ppm [9]: 0%
mortality at 200 ppm [10]: 0%
mortality at 200 ppm [11]: 0%

c1ccc(Oc2cccc(CCNc3ncnc4ccccc34)c2)cc1 [Example 38, N-[2-(3-phenoxyphenyl)ethyl]-4-quinazolinamine]
POWD MDEW [1]: ++ (++ = 90-100% control at 400 ppm)
RICE BLAST [2]: +++ (+++ = 90-100% control at 100 ppm)
LEAF RUST [3]: +++ (+++ = 90-100% control at 100 ppm)
GRAY MOLD [12]: - (- = 0-19% control at 400 ppm)
DOWN MDEW [4]: +++ (+++ = 90-100% control at 100 ppm)
LEAF SPOT [5]: + (+ = 20-89% control at 400 ppm)
APPL SCAB [6]: + (+ = 20-89% control at 400 ppm)
LEAF BLOT [7]: ++ (++ = 90-100% control at 400 ppm)
mortality at 12 ppm [8]: 0%
mortality at 24 ppm [8]: 100%
mortality at 200 ppm [9]: 40%
mortality at 400 ppm [9]: 40%
mortality at 200 ppm [10]: 0%
mortality at 400 ppm [10]: 90%
mortality at 200 ppm [11]: 0%
mortality at 400 ppm [11]: 80%

Fc1cccc2c(OCCc3cccc4ccccc34)ncnc12 [Example 141, 8-fluoro-4-[2-(1-naphthalenyl)ethoxy]quinazoline]
POWD MDEW [1]: + (+ = 20-89% control at 400 ppm)
RICE BLAST [2]: + (+ = 20-89% control at 400 ppm)
LEAF RUST [3]: + (+ = 20-89% control at 400 ppm)
GRAY MOLD [12]: - (- = 0-19% control at 400 ppm)
DOWN MDEW [4]: + (+ = 20-89% control at 400 ppm)
mortality at 24 ppm [8]: 0%
mortality at 400 ppm [9]: 0%
mortality at 400 ppm [10]: 0%
mortality at 400 ppm [11]: 0%

Fc1cccc2c(OCCC3CCCCC3)ncnc12 [Example 70, 4-(2-cyclohexylethoxy)-8-fluoroquinazoline]
POWD MDEW [1]: + (+ = 20-89% control at 400 ppm)
RICE BLAST [2]: +++ (+++ = 90-100% control at 100 ppm)
LEAF RUST [3]: + (+ = 20-89% control at 400 ppm)
GRAY MOLD [12]: - (- = 0-19% control at 400 ppm)
DOWN MDEW [4]: + (+ = 20-89% control at 400 ppm)
mortality at 24 ppm [8]: 0%
mortality at 400 ppm [9]: 0%
mortality at 400 ppm [10]: 80%
mortality at 400 ppm [11]: 0%

Fc1ccccc1Oc1ccc(CCOc2ncnc3ccccc23)cc1 [Example 162, 4-(2-[4-(2-fluorophenoxy)phenyl]ethoxy]quinazoline]
POWD MDEW [1]: +++ (+++ = 90-100% control at 100 ppm)
RICE BLAST [2]: +++ (+++ = 90-100% control at 100 ppm)
LEAF RUST [3]: +++ (+++ = 90-100% control at 100 ppm)
GRAY MOLD [12]: - (- = 0-19% control at 400 ppm)
DOWN MDEW [4]: +++ (+++ = 90-100% control at 100 ppm)
mortality at 12 ppm [8]: 0%
mortality at 24 ppm [8]: 100%
mortality at 200 ppm [9]: 60%
mortality at 400 ppm [9]: 0%
mortality at 200 ppm [10]: 100%
mortality at 400 ppm [10]: 100%
mortality at 200 ppm [11]: 80%
mortality at 400 ppm [11]: 80%

c1ccc2cc(CCNc3nc(NCCc4ccc5ccccc5c4)c4ccccc4n3)ccc2c1 [Example 32, N,N'-bis[2-(2-naphthyl)ethyl]-2,4-quinazolinediamine]
POWD MDEW [1]: - (- = 0-19% control at 400 ppm)
RICE BLAST [2]: - (- = 0-19% control at 400 ppm)
LEAF RUST [3]: - (- = 0-19% control at 400 ppm)
GRAY MOLD [12]: - (- = 0-19% control at 400 ppm)
DOWN MDEW [4]: + (+ = 20-89% control at 400 ppm)
mortality at 12 ppm [8]: 0%
mortality at 24 ppm [8]: 0%
mortality at 200 ppm [9]: 0%
mortality at 400 ppm [9]: 0%
mortality at 200 ppm [10]: 0%
mortality at 400 ppm [10]: 0%
mortality at 200 ppm [11]: 0%
mortality at 400 ppm [11]: 0%
